US20070203248A1, “Cardioprotective agents” (DABUR RESEARCH FOUNDATION., priority 2003, published 2007)
Where “and” joins values, the source holds several entries; their conditions need not be identical. Identical values can stand only once. Like-named read-outs stand apart in the source and are kept apart here.

Legend:
[1] = DPPH free radical scavenging assay in vitro; type: biochemical; settings: for Mean percent Radical scavenging: DPPH, 5 minutes
Description: The free radical scavenging potential of 5-Methoxytryptamine was evaluated by the 1,1 diphenyl-2 picryl hydrazyl (DPPH) assay as described (Hycon, Lee et al, Arch. Pharm. Res. 19 (3), 223-227). […] 5-Methoxytryptamine was dissolved in 3.5% ethanol in normal saline and screened for its radical scavenging activity in concentration ranging from 1-1000 ug/ml. 100 ul of 0.2 mM DPPH was incubated with 100 ul of varying concentrations of 5-Methoxy tryptamine in 96 well tissue culture plates for 20 seconds at room temperature. All experiments were carried out in triplicates. 3.5% ethanol in normal saline was similarly incubated with 0.2 mM DPPH in control experiments for evaluating the effect of the vehicle on radical scavenging. The change in absorbance of DPPH incubated with varying concentrations of 5-Methoxy tryptamine of the vehicle was read at 517 nm for every 60 secs for 5 minutes. The absorbance of 0.2 mM DPPH taken after incubating for 5 minutes at room temperature was the blank O.D. The percent free radical scavenging ability of 5-Methoxy tryptamine was calculated as defined below. Percent Free Radical scavenging=Blank OD at 5 minutes−Sample OD at 5 minutes×100/Blank OD at 5 minutes

human tumour cell lines = assay: MTT cytotoxicity assay, effect of 5-Methoxytryptamine on anticancer activity of Adriamycin; type: cell-based; settings: 5-Methoxytryptamine at its highest concentration 1 ug/ml; MCF7, DU145, MiaPaCa2, HT 29
Description: Adriamycin was dissolved in saline immediately before use. […] 1 ug/ml.

[2] = tested on: Adriamycin treated rat myocardium; settings: for LP (lipid peroxidation), myocardium: 24 hours
Description: The effect of 5-Methoxytryptamine on lipid peroxidation in Adriamycin treated myocardial tissue was quantitated by Thiobarbituric acid reactive substances based assay as described (Uchiyama and Mihara, M., Anal. Biochem. 86, 271-278, 1978). Briefly male Wistar rats of the age group 5-6 weeks were maintained on normal rat pellets ad libitum. Rats were divided into four groups viz Groups I, II, III and IV.
Group II, Animals treated with Adriamycin
(§1) Group III: Animals treated with 5-Methoxytryptamine and Adriamycin.
(§2) Group IV: Animals treated with 5 Methoxytryptamine
Each group consisted of 5 animals. 30 mg/kg body weight of Adriamycin was administered intraperitoneally to animals in Groups II and III. The animals comprising group III, were injected intraperitoneally with 5-Methoxytryptamine in concentration ranging from 8.5-35 mg/kg body weight 30 minutes prior to the Adriamycin treatment. The animals comprising group IV, were injected intraperitoneally with 5-Methoxytryptamine in concentration ranging from 8.5-35 mg/kg body weight. 24 hours later, the beating hearts of the animals were excised by decapitation. The heart tissue was washed in ice cold saline twice, weighed and snap frozen at −70° C. for assaying for Lipid peroxidation.
Briefly 200 mg of the live rat myocardial tissue was excised and homogenized in 2 ml of ice cold 10% Trichloro acetic acid buffer (TCA) buffer. To 200 ul of the homogenate thus obtained, 200 ul of 8.1% SDS, 1.5 ml of 20% Acetic acid, 1.5 ml of 0.8% of Thiobarbituric acid (TBA) and 1.0 ml of water was added in glass test tubes. The tubes were heated at 95° C. for 60 minutes. The mixture was cooled and diluted with 1 ml of double distilled water. A mixture of n-butanol and pyridine was prepared fresh in the ratio of 15:1 respectively. 5 ml of the n-butanol-pyridine mix was added to each tube containing the cardiac tissue homogenates. The tubes were centrifuged at 3000 rpm for 10 minutes at 4° C. 200 ul of the coloured liquid was collected from at the interphase of the aqueous and organic layers and the absorbance was measured spectrophotometrically at 532 nm. The control experiments contained only the TCA buffer treated similarly. The standard tubes contained Malonaldehyde in concentrations ranging from 2.5-25 uM. Malonaldehyde was dissolved in double distilled water. All experiments were carried out in triplicates. The extent of lipid peroxidation in the cardiac homogenates was expressed as uM/gm of the cardiac tissue. The extent of lipid peroxidation was calculated for the cardiac tissues of the animals comprising Groups I, II, III and IV.

[3] = tested on: Adriamycin treated rat myocardium; settings: for SOD (Superoxide Dismutase), myocardium: 24 hours
Description: (§3) Briefly male Wistar rats of the age group 5-6 weeks were maintained on normal rat pellets ad libitum. Rats were divided into four groups viz. Groups I, II, III and IV.
(§4) Group II: Animals treated with Adriamycin
Each group consisted of 5 animals. 30 mg/kg body weight of Adriamycin was administered intraperitoneally to animals in Groups II and III. […] 24 hours later, the beating hearts of the animals were excised by decapitation. The heart tissue was washed in ice cold saline twice, weighed and frozen for assaying Superoxide Dismutase activity.
Briefly, 200 mg of rat myocardial tissue was excised and homogenized in 2 ml of ice cold Tris sucrose buffer (pH 7.4). The homogenate was centrifuged at 10000 rpm, at 4° C. for 10 minutes, and the supernatent carefully aspirated and collected. For each experiment, 1.2 ml of sodium pyrophosphate buffer was taken in clean glass tubes. To this 100 ul of 186 uM Phenazine methosulphate solution, 300 ul of a 300 uM solution of Nitroblue tetrazolium and 600 ul of double distilled water was added and mixed well. 600 ul of the supernatent obtained earlier was added per tube. A solution of NADH of the concentration 780 uM was freshly prepared for the experiments. The reaction in the tubes was initiated by the addition of 200 ul of a 780 uM solution of NADH per tube. The tubes were incubated for 90 seconds at room temperature. The reaction was stopped by the addition of 1 ml of 100% glacial acetic acid per tube and the absorbance measured spectrophotometrically at 560 nM. All experiments were carried out in triplicates. The control experiments contained only ice cold Tris Sucrose buffer (pH 7.4) treated identically. The standard tubes contained the enzyme Superoxide Dimutase dissolved in double distilled water in concentrations ranging from 0.1 U to 20 Units treated identically as above. The enzyme activity in the tissue homogenates was quantitated by rate of decrease in optical density at 560 nm, and expressed as units/mg protein. The Superoxide Dismutase activity was calculated for the cardiac tissues of the animals comprising Groups I, II, III and IV.

[4] = tested on: Adriamycin treated rat liver tissue; settings: for LP (lipid peroxidation), liver: 24 hours
Description: as §3, §4, §1
Group IV: Animals treated with 5-Methoxytryptamine
Each group consisted of 5 animals. 30 mg/kg body weight of Adriamycin was administered intraperitoneally to animals in Groups II and III. The animals comprising group III, were injected intraperitoneally with 5-Methoxytryptamine in concentrations ranging from 8.5-35 mg/kg body weight 30 minutes prior to the Adriamycin treatment. The animals comprising group IV, were injected intraperitoneally with 5-Methoxytryptamine in concentrations ranging from 8.5-35 mg/kg body weight. 24 hours later, the liver tissue of the animals were excised. The liver tissue was washed in ice cold saline twice, weighed and snap frozen at −70° C. for assaying for Lipid peroxidation.
Briefly 200 mg of the rat liver tissue was excised and homogenized in 2 ml of ice cold 10% Trichloro acetic acid buffer (TCA) buffer. To 200 ul of the homogenate thus obtained, 200 ul of 8.1% SDS, 1.5 ml of 20% Acetic acid, 1.5 ml of 0.8% of Thiobarbituric acid (TBA) and 1.0 ml of water was added in glass test tubes. The tubes were heated at 95° C. for 60 minutes. The mixture was cooled and diluted with 1 ml of double distilled water. A mixture of n-butanol and pyridine was prepared fresh in the ratio of 15:1 respectively. 5 ml of the n-butanol-pyridine mix was added to each tube containing the liver tissue homogenates. The tubes were centrifuged at 3000 rpm for 10 minutes at 4° C. 200 ul of the colored liquid was collected from the interphase of the aqueous and organic layers and the absorbance was measured spectrophotometrically at 532 nm. The control experiments contained only the TCA buffer treated similarly. The standard tubes contained Malonaldehyde in concentrations ranging from 2.5-25 uM. Malonaldehyde was dissolved in double distilled water. All experiments were carried out in triplicates. The extent of lipid peroxidation in the liver homogenates was expressed as uM/gm of the liver tissue. The extent of lipid peroxidation was calculated for the liver tissues of the animals comprising Groups I, II, III and IV.

[5] = tested on: Adriamycin treated animals
Description: The effect of 5-Methoxy tryptamine on circulating CK-MB levels was quantitated as described. Briefly male Wistar rats of the age group 5-6 weeks were maintained on normal rat pellets ad libidum. Rats were divided into four groups viz. Groups I, II, III and IV.
as §4
(§5) Group III: Animals treated with Adriamycin and 5-Methoxytryptamine
Group IV: Animals treated with 5-Methoxytryptamine.
Each group consisted of 6 animals. 5 mg/kg of Adriamycin was administered intraperitoneally to animals of groups II and III as two equal divided doses once every seven days. The animals comprising Group III were injected intraperitoneally with 17.5 mg/kg of 5-Methoxytryptamine, as seven equal doses given every alternate day. The animals of the group III were injected with 5-Methoxytryptamine, 30 minutes prior to the Adriamycin injection. The animals comprising Group IV were treated with 17.5 mg/kg of 5-Methoxytryptamine as seven equal doses, given every alternate day. At the 41st day of the study, blood was collected from the retroorbital vein of all the animals in the study. The blood was kept at room temperature for 15 minutes, and spun at 3000 rpm for 15 minutes. […] The quantitation was carried out by kits procured from Bayer Diagnostics using RA 50 Chemistry Analyzer (Bayer Diagnostics), as per the manufacturers instructions.

[6] = tested on: Adriamycin treated animals; remark: listed apart in the source
Description: The effect of 5-Methoxytryptamine on circulating LDH levels was quantitated as described. Briefly male Wistar rats of the age group 5-6 weeks were maintained on normal rat pellets ad libidum. Rats were divided into four groups viz. Groups I, II, III and IV.
as §4, §5, §2
Each group consisted of 6 animals. 5 mg/kg of Adriamycin was administered intraperitoneally to animals of groups II and III as two equal divided doses once every seven days. The animals comprising Group III were injected intraperitoneally with 17.5 mg/kg of 5-Methoxytryptamine, as seven equal doses given every alternate day. The animals of the group III were injected with 5-Methoxytryptamine, 30 minutes prior to the Adriamycin injection. The animals comprising Group IV were treated with 17.5 mg/kg of 5-Methoxytryptamine as seven equal doses, given every alternate day. At the 41st day of the study, blood was collected from the retroorbital vein of all the animals in the study. The blood was kept at room temperature for 15 minutes, and spun at 3000 rpm for 15 minutes. […] The quantitation was carried out by kits procured from Bayer Diagnostics using RA 50 Chemistry Analyzer (Bayer Diagnostics), as per the manufacturer's instructions.

[7] = 8.5-35 mg/kg, 30 mg/kg doxorubicin
[8] = Group IV A: 5 MT 8.5 mg/kg i.p. alone
[9] = Group IV B: 5 MT 17 mg/kg i.p. alone
[10] = Group IV C: 5 MT 35 mg/kg i.p. alone
[11] = Group IV: 5-Methoxytryptamine 17.5 mg/kg as seven doses every alternate day, alone, serum, day 41

Question: Which “Mean percent Radical scavenging” value ([1]; 31 ug/ml) does the source give for `COc1ccc2[nH]cc(CCN)c2c1` [5-Methoxytryptamine] here?
Answer: The value was 10 ± 4.3%.

Question: And the “Mean percent Radical scavenging” value ([1]; 62.5 ug/ml)?
Answer: Its value is 25 ± 5.0%.

Question: What about the “Mean percent Radical scavenging” value ([1]; 125 ug/ml) of the same compound?
Answer: Its value is 75.4 ± 5.5%.

Question: What about the “Mean percent Radical scavenging” value ([1]; 250 ug/ml) of the same compound?
Answer: The value was 85.24 ± 4.8%.

Question: What about the “Mean percent Radical scavenging” value ([1]; 500 ug/ml) of the same compound?
Answer: Its value is 87.4 ± 5.0%.

Question: What about the “Mean percent Radical scavenging” value ([1]; 1000 ug/ml) of the same compound?
Answer: Its value is 88.25% and 88.25 ± 5.1%.

Question: What about the “Concentration range in which free radicals are scavenged” value ([1]; DPPH in vitro) of the same compound?
Answer: The value was 31 to 1000 µg/mL.

Question: And the “Effect of addition on ED50 values of the cytotoxicity of Adriamycin” value (human tumour cell lines)?
Answer: The value was “is not altered”.

Question: And the “Effect on lipid peroxidation in rat myocardial tissue, alone” value ([2]; 8.5-35 mg/kg alone)?
Answer: Its value is “did not alter the lipid peroxidation”.

Question: What about the “Effect on lipid peroxidation in rat myocardial tissue treated with doxorubicin” value [2, 7] of the same compound?
Answer: Its value is “inhibits the lipid peroxidation”.

Question: And the “LP (lipid peroxidation), myocardium” value [2, 8]?
Answer: Its value is 535 ± 12.5 µmol/g.

Question: And the “LP (lipid peroxidation), myocardium” value [2, 9]?
Answer: Its value is 500 ± 14.5 µmol/g.

Question: What about the “LP (lipid peroxidation), myocardium” value [2, 10] of the same compound?
Answer: The value was 513 ± 12.3 µmol/g.

Question: And the “Effect on Superoxide Dismutase activity in rat myocardium, alone” value ([3]; 8.5-35 mg/kg alone)?
Answer: The value was “did not alter the Superoxide Dismutase activity”.

Question: What about the “Effect on Superoxide Dismutase activity in rat myocardium treated with Doxorubicin” value [3, 7] of the same compound?
Answer: The value was “increases the Superoxide Dismutase activity”.

Question: And the “SOD (Superoxide Dismutase), myocardium” value [3, 8]?
Answer: The value was 32 ± 2.5 U/mg.

Question: And the “SOD (Superoxide Dismutase), myocardium” value [3, 9]?
Answer: The value was 30 ± 2.9 U/mg.

Question: And the “SOD (Superoxide Dismutase), myocardium” value [3, 10]?
Answer: Its value is 34 ± 4.5 U/mg.

Question: What about the “Effect on lipid peroxidation in rat liver tissue, alone” value ([4]; 8.5-35 mg/kg alone) of the same compound?
Answer: The value was “does not alter the lipid peroxidation”.

Question: And the “LP (lipid peroxidation), liver” value [4, 8]?
Answer: Its value is 601 ± 16.5 µmol/g.

Question: And the “LP (lipid peroxidation), liver” value [4, 9]?
Answer: Its value is 625 ± 15.5 µmol/g.

Question: And the “LP (lipid peroxidation), liver” value [4, 10]?
Answer: Its value is 630 ± 16.3 µmol/g.

Question: What about the “Effect on CK-MB levels in Adriamycin treated animals” value ([5]; 17.5 mg/kg, Adriamycin 5 mg/kg) of the same compound?
Answer: Its value is “reduces the CK-MB levels”.

Question: What about the “CK - MB” value [5, 11] of the same compound?
Answer: The value was 379 ± 26 U/L.

Question: What about the “Effect on LDH levels in Adriamycin treated animals” value ([6]; 17.5 mg/kg, Adriamycin 5 mg/kg) of the same compound?
Answer: The value was “reduces the LDH levels”.

Question: And the LDH [6, 11]?
Answer: The LDH was 1009 ± 26 U/L.
